# Assay results taken from PMC11992225, “Antibacterial compounds against non-growing and intracellular bacteria” (npj Antimicrobials and Resistance, 2025).
# “And” between values parts separate entries of the source, which are not always exact repeats. Equal entries are not always repeated.
# Key:
# non-growing S. aureus = assay: Time-dependent effects of drug treatment on regrowth, S. aureus; type: cell-based, Staphylococcus aureus; settings: 10 µM, OD600 8 h after dilution
# Description: (§1) For screening and concentration-dependent characterization of the hit compounds, we used a 24-h incubation to capture their effects, although the actual onset of their activity may occur much sooner. To assess the speed of action, we treated stationary-phase cultures of three organisms with compounds that had previously shown a strong regrowth delay at 10 µM. We selected compounds that, in earlier tests, strongly delayed regrowth, such that diluted cultures remained below an OD600 of 0.12 (indicating no growth) after 6 h for UPEC or 8 h for P. aeruginosa and S. aureus in drug-free medium.
# (§2) We collected samples at different times during the 24-h incubation, diluted them 2500-fold, and measured the OD600 after 6 or 8 h of further incubation, respectively. […] Rifampicin acts quickly against non-growing S. aureus, while the effects of the other compounds increase gradually during incubation but are already apparent within the first hour of treatment.
# Bacteria were cultivated in 1:4 diluted CA-MHB (40 mM HEPES, pH 7.4) for 24 h. Aliquots were dispensed into a 96-well plate, and compounds were added at a 10 µM concentration. […] The OD600 of the samples was measured to assess regrowth using a microplate reader (BioTek Synergy H1) after 6 h for UPEC and 8 h for P. aeruginosa and S. aureus. […]
# [1] = system: non-growing P. aeruginosa; assay: Time-dependent effects of drug treatment on regrowth, P. aeruginosa; type: cell-based, Pseudomonas aeruginosa; settings: 10 µM, OD600 8 h after dilution
# Description: as §1, §2
# Bacteria were cultivated in 1:4 diluted CA-MHB (40 mM HEPES, pH 7.4) for 24 h. Aliquots were dispensed into a 96-well plate, and compounds were added at a 10 µM concentration. Samples were collected at designated time points, diluted 2500-fold as described for the dilution-regrowth assay, and incubated in standing plates within a humid box at 37 °C. The OD600 of the samples was measured to assess regrowth using a microplate reader (BioTek Synergy H1) after 6 h for UPEC and 8 h for P. aeruginosa and S. aureus. The experiment was performed in triplicates.
# [2] = system: SOS response in UPEC CFT073; assay: SOS response induction analysis, pAED2 cda' promoter mScarlet-I reporter; type: cell-based, Escherichia coli; settings: 20 μM; for induction of the SOS response in growing UPEC cultures: 6 h, MMC, BLE, ECH in 1:4 CA-MHB pH 7.4, PLI, SAT, EVO in LPM pH 5.5; for growth inhibition of growing UPEC: LPM pH 5.5, Fig. S7C,D
# Description: Since we aimed to test SOS induction in non-growing cultures, it was essential to use a reporter with no leaky expression in the stationary phase. Therefore, we constructed the plasmid pAED2, based on the low copy-number plasmid pSC101, which contains the cda’ promoter in front of the mScarlet-I-encoding reporter gene.
# Overnight cultures of CFT073 harboring a reporter plasmid were grown in 3 ml of LB supplemented with 100 µg/ml carbenicillin (Cb), then diluted 1:100 into the medium used for testing. For validation of the pANO1::cda’ reporter, an overnight culture was diluted into CA-MHB (supplemented with 40 mM HEPES, pH 7.4, and 100 µg/ml Cb) and grown to an OD600 ≈ 0.5 at 37 °C with shaking at 200 rpm in an Erlenmeyer flask. […] Empty wells were filled with water. […] The experiment was performed in triplicate.
# For analysis of the SOS induction by anti-cancer compounds, the overnight cultures were diluted either into 1:4 diluted CA-MHB (40 mM HEPES, pH 7.4) or LPM (30 mM MES, pH 5.5) that were supplemented with 100 µg/ml Cb. For analysis of the effect on growing bacteria, the cultures were incubated at 37 °C with shaking at 200 rpm in Erlenmeyer flasks for 90 min, to an OD600 ≈ 0.5. Then, 180 μl aliquots were transferred to 96-well plates, and 20 μl of the 200 μM drug solution was added to achieve a final concentration of 20 μM. The plates were incubated in a microplate reader (BioTek Synergy H1) at 37 °C with continuous shaking for 6 h. OD600 and mScarlet fluorescence were recorded throughout the incubation.
# For analysis of the effect of anti-cancer compounds on stationary phase- and regrowing bacteria, the cultures were incubated for 24 h at 37 °C with shaking at 200 rpm in Erlenmeyer flasks. […] The samples were incubated for 24 h at 37 °C in standing 1.5 ml tubes. Before and after the drug treatment, 25 μl aliquots were taken and diluted by mixing with 175 μl PBS. OD600 and mScarlet fluorescence were recorded using a microplate reader (BioTek Synergy H1).
# After the treatment, stationary-phase bacteria were harvested by centrifugation at 5000 × g for 5 min at 20 °C, washed twice with PBS, and resuspended in 475 μl PBS.
# TC7 cells = assay: TC7 cell viability upon drug exposure, MTS assay; type: cell-based; settings: at the MIC concentrations, 12 h, no bacteria
# Description: TC7 cells were grown to confluence in transparent 96-well cell culture plates (TPP) in the same cell culture medium used for the in vitro infection assay. Just prior to the experiment, the medium was discarded, and the cells were washed twice with sterile PBS to remove any traces of medium or dead cells. […] The plate was incubated at 37 °C in a CO2 incubator for 12 h, under the same conditions as the infection assay.
# The 3-(4,5-dimethylthiazol-2-yl)-5-(3-carboxymethoxyphenyl)-2-(4-sulfophenyl)-2H-tetrazolium (MTS) assay was performed using the CellTiter 96® AQueous One Solution Cell Proliferation Assay kit (Promega), according to the manufacturer’s instructions. Briefly, 20 μl of CellTiter 96 AQueous One Solution Reagent was added to each well, and the plate was incubated for 2 h at 37 °C in a CO2 incubator. The OD490 of the samples was measured using a Spark multimode plate reader (Tecan). The raw values were normalized to the control wells incubated with infection buffer only. The experiment was performed in duplicate.
# [3] = system: non-growing S. aureus DSM2569; assay: Dose-dependent killing analysis (CFU spot-plating) of stationary-phase S. aureus; type: cell-based, Staphylococcus aureus; settings: for Δlog10(CFU/ml): S. aureus, average killing vs before treatment (9,097)
# Description: To determine the spectrum of activity of the compounds that were effective against non-growing UPEC, we further assessed their efficacy against the well-characterized Gram-negative and Gram-positive reference strains P. aeruginosa DSM1117 and S. aureus DSM2569, respectively. The cultures were grown and treated for 24 h in 1:4 CA-MHB (pH 7.4). […].
# For survival analysis, bacteria were cultivated as described for the dose–response dilution-regrowth assay. Assays with UPEC were conducted at the CBCS screening facility using 96-well plates with a 200 μl sample volume, and compounds were dispensed using the Echo® (Labcyte) system. P. aeruginosa and S. aureus samples were treated according to the protocol used for the dilution-regrowth experiments. Treated samples were serially diluted 10-fold in PBS, and 10 μl drops were spot-plated onto rectangular LB agar plates using either a Beckman NXP robot (for UPEC) or an Integra VIAFLO96 electronic pipette (for P. aeruginosa and S. aureus). The LB agar plates were incubated overnight at 37 °C and scanned. Colonies were counted at the spots of the lowest dilution where individual colonies could be accurately distinguished. Each colony was manually marked on a separate image layer using the GNU Image Manipulation Program, and counted using NIST’s Integrated Colony Enumerator (NICE 1.4) software. The experiments were performed in three biological replicates.
molecule,measurement,setting,value
CO[C@H]1/C=C/O[C@@]2(C)Oc3c(C)c(O)c4c(O)c(c(/C=N/N5CCN(C)CC5)c(O)c4c3C2=O)NC(=O)/C(C)=C\C=C\[C@H](C)[C@H](O)[C@@H](C)[C@@H](O)[C@@H](C)[C@H](OC(C)=O)[C@@H]1C [Rifampicin],speed of action: regrowth delay over treatment time,non-growing S. aureus,acts quickly
CC(=O)[O][Pt]([NH2])([Cl])([Cl])([NH]C1CCCCC1)[O]C(C)=O [Satraplatin],speed of action: regrowth delay over treatment time,[1],act more slowly
same,induction of the SOS response in growing UPEC cultures,[2],induced the SOS response
same,growth inhibition of growing UPEC,[2],only a slight growth inhibition
same,toxicity to TC7 epithelial cells,TC7 cells,toxic
C[C@@H]1CN(c2c(F)c(N)c3c(=O)c(C(=O)O)cn(C4CC4)c3c2F)C[C@H](C)N1 [Sparfloxacin],speed of action: regrowth delay over treatment time,[1],act more slowly
N[C@@H]1[C@H]2CN(c3nc4c(cc3F)c(=O)c(C(=O)O)cn4-c3ccc(F)cc3F)C[C@@H]12 [Trovafloxacin],speed of action: regrowth delay over treatment time,[1],act more slowly
C=C[C@]1(C)C[C@@H](OC(=O)CSC(C)(C)CNC(=O)[C@H](N)C(C)C)[C@]2(C)[C@H](C)CC[C@]3(CCC(=O)[C@H]32)[C@@H](C)[C@@H]1O [Valnemulin],toxicity to TC7 epithelial cells,TC7 cells,toxic
Bleomycin,"Log10(CFU/ml), Replicate #1",[3],6.114 Log10(CFU/ml) and 7.898 Log10(CFU/ml) and 8.934 Log10(CFU/ml) and 8.881 Log10(CFU/ml)
same,"Log10(CFU/ml), Replicate #2",[3],6.845 Log10(CFU/ml) and 8.447 Log10(CFU/ml) and 8.959 Log10(CFU/ml) and 9.255 Log10(CFU/ml)
same,"Log10(CFU/ml), Replicate #3",[3],6.863 Log10(CFU/ml) and 8.431 Log10(CFU/ml) and 8.778 Log10(CFU/ml) and 8.944 Log10(CFU/ml)
same,Δlog10(CFU/ml),[3]; 0.1 μM,0.070 log10(CFU/ml)
same,Δlog10(CFU/ml),[3]; 0.5 μM,0.206 log10(CFU/ml)
same,Δlog10(CFU/ml),[3]; 2.5 μM,0.838 log10(CFU/ml)
same,Δlog10(CFU/ml),[3]; 10 μM,2.490 log10(CFU/ml)
same,induction of the SOS response in growing UPEC cultures,[2],induced the SOS response
Plicamycin,induction of the SOS response in growing UPEC cultures,[2],not detected
same,growth inhibition of growing UPEC,[2],only a slight growth inhibition
